Laboratory results published in patent US20190055267A1, “ORGANOTRIFLUOROBORATE MIMICS OF AMINO ACIDS AND USES THEREOF” (The United States of America, as represented by the …, priority 2015, published 2019).
Like-named read-outs stand apart in the source and are kept apart here.

Experiments:
[1] = Solvolysis of the BF3 moiety in phosphate buffer; format: physicochemical; details: for t1/2/min: half-life in phosphate buffer at pH 7.4; for pKB-F: pK of the first fluorine of the BF3− moiety; for k (solv)/min^−1: rate of solvolysis, phosphate buffer pH 7.4
Description: See also, Liu et al., Chem. Eur. J., 2015, 21:3924-8, incorporated herein by reference in its entirety.

[2] = COOH group of the corresponding amino acid; cited from earlier work
UM22B cells = test: Competitive inhibition assay of 18F-Leu-BF3 uptake; format: cell-based; details: 60 min incubation
Procedure: To study the specificity of BAA transportation, a competitive inhibition assay was performed using UM22B cells in the presence of natural amino acid and transporter inhibitor.

U87MG cells = test: In vitro competitive inhibition of boramino acid uptake by natural amino acids and transporter inhibitors; design: inhibition: dose or concentration left out as unconfirmed; details: for inhibition / inhibition at 25000 µM: Homo sapiens, U-87 MG, 1 h; for inhibition: read-out: inhibition of uptake of 18F-Leu-BF3
Procedure: The U87MG cells were in Dulbecco modified Eagle medium and Minimum Essential Medium under a humidified atmosphere with 5% CO2 at 37° C. The culture media was supplemented with 10% fetal bovine serum, 100 U/mL penicillin, and 100 μg/mL streptomycin. […] Prior to incubation, the cells were washed with phosphate-buffered saline (PBS). […] The cells were then washed 3 times with ice-cold PBS, quenched with 0.1 M of NaOH and the cell-bound radioactivity was counted using a gamma counter. Uptake is defined as percentage of added radioactive dose (% AD).
The control is incubation with BAA only without competitor.

amino acid transporters = details: natural amino acid, comparison value; read-out: KM/μM, AA; cited from earlier work
[3] = read-out: inhibition of uptake of 18F-Phe-BF3
[4] = read-out: inhibition of uptake of 18F-Ala-BF3
[5] = read-out: inhibition of uptake of 18F-Pro-BF3
[6] = U87MG cells, competitor at 25 mM, 60 min incubation

Row | Structure (SMILES) | t1/2/min [1] | pKB-F [1] | k (solv)/min^−1 [1] | pka of corres. COOH [2] | inhibition (U87MG cells) | inhibition at 25000 µM (U87MG cells; [3]) | inhibition at 25000 µM (U87MG cells; [4]) | other results
1 | C[C@H]([NH3+])[B-](F)(F)F [Ala-BF3] | 56.42 h | 3.6895 | 0.0002044 min⁻¹ | 2.35 | – | – | – | –
2 | NC1(C(=O)O)CC2CCC1C2 (stereo not drawn) [BCH, 2-amino-2-norbornanecarboxylic acid] | – | – | – | – | 77.4% | 72.1% | – | inhibition of cell uptake of 18F-Leu-BF3 (UM22B cells): 83.0%; inhibition of uptake of 18F-Leu-BF3 (U87MG cells; U87MG cells, BCH with sodium-free medium, 60 min incubation): 83.0%
3 | C[C@H](N)C(=O)O [L-Alanine] | – | – | – | – | 38.9% | 60.3% | ~90% | Km (amino acid transporters): 370 µM
4 | N=C(N)NCCC[C@H](N)C(=O)O [L-Arginine] | – | – | – | – | 23% | 42.6% | 58.2% | inhibition at 25000 µM (U87MG cells; [5]): 15.6%
5 | N[C@@H](CCC(=O)O)C(=O)O [L-Glutamate] | – | – | – | – | – | – | – | inhibition of uptake of 18F-Ala-BF3 (U87MG cells; [6]): 50.3%; inhibition of uptake of 18F-Phe-BF3 (U87MG cells; [6]): 13.0%; inhibition of uptake of 18F-Pro-BF3 (U87MG cells; [6]): 0.2%
6 | CC(C)C[C@H](N)C(=O)O [L-leucine] | – | – | – | – | ~98% | – | – | inhibition of cell uptake of 18F-Leu-BF3 (UM22B cells): 94.7%; Km (amino acid transporters): 19.7 ± 2.4 µM
7 | N[C@@H](Cc1ccccc1)C(=O)O [L-phenylalanine] | – | – | – | – | – | ~80% | 71% | Km (amino acid transporters): 18.7 ± 4.1 µM; inhibition at 25000 µM (U87MG cells; [5]): 0.1%
8 | CC(C)C[C@H]([NH3+])[B-](F)(F)F [Leu-BF3] | 60.25 h | 3.7181 | 0.0001914 min⁻¹ | 2.33 | – | – | – | –
9 | CNC(C)(C)C(=O)O [MeAIB, 2-methylaminoisobutyric acid] | – | – | – | – | 24.5% | 17.6% | 39.3% | inhibition at 25000 µM (U87MG cells; [5]): 39.3%
10 | CSCC[C@H]([NH3+])[B-](F)(F)F [Met-BF3] | 116.4 h | 4.0041 | 9.906e-05 min⁻¹ | 2.13 | – | – | – | –
11 | [NH3+]C(Cc1ccccc1)[B-](F)(F)F (stereo not drawn) [Phe-BF3] | 92.45 h | 3.904 | 0.0001247 min⁻¹ | 2.2 | – | – | – | –
